Assay results: ChEMBL document CHEMBL1833863, “Synthesis, biological evaluation and molecular docking studies of 1,3,4-thiadiazole derivatives containing 1,4-benzodioxan as potential antitumor agents” (Bioorg Med Chem Lett, 2011)
pEC50: −log10 of the molar value. Values after ≈ are worked out from the molar mass of the structure shown. Active and inactive are the calls of the source. The rule behind the calls is not given here.

What was measured:
BGC-823 = assay: Antiproliferative activity against human BGC823 cells after 48 hrs by MTT assay; format: functional, cell-based; settings: BGC-823, 48 h
HeLa = assay: Antiproliferative activity against human HeLa cells after 48 hrs by MTT assay; format: functional, cell-based
Focal adhesion kinase 1 [1] = target: T1, Focal adhesion kinase 1 (Homo sapiens, UniProt Q05397); assay: Inhibition of human recombinant full-length FAK assessed as remaining ATP after 4 hrs by Kinase-Glo-luminescence assay
Target sequence in this assay (Q05397 whole entry): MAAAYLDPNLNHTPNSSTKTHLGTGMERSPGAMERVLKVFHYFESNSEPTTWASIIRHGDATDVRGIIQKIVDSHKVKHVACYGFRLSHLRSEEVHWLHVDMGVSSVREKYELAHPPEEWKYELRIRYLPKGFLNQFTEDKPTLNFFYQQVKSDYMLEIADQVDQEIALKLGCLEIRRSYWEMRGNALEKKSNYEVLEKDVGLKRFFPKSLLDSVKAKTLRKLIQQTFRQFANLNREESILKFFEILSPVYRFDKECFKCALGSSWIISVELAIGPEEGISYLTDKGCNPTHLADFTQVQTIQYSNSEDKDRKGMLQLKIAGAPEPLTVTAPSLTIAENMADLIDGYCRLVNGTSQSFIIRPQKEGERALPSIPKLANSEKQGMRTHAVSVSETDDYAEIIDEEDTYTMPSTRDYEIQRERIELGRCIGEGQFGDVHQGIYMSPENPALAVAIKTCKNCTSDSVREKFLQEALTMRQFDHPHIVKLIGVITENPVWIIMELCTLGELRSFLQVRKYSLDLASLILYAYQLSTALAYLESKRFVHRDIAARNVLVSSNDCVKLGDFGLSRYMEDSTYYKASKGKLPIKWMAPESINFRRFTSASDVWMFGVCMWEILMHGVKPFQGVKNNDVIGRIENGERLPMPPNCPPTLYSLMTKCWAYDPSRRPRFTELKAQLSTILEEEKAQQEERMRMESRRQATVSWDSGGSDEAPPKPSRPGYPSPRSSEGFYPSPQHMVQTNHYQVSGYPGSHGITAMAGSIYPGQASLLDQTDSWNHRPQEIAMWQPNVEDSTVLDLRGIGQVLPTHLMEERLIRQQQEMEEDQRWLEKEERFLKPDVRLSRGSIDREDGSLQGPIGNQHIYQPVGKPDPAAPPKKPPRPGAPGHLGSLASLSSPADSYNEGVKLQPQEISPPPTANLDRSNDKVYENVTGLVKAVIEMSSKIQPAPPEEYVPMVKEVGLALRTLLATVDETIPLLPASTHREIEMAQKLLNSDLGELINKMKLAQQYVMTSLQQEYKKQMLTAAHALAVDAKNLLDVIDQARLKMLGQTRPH

[2] = Antiproliferative activity against human SW1116 cells after 48 hrs by MTT assay; format: functional, cell-based; settings: SW 1116, 48 h
HepG2 [3] = assay: Antiproliferative activity against human HepG2 cells after 48 hrs by MTT assay; format: functional, cell-based; settings: HepG2, 48 h
HepG2 [4] = assay: Induction of apoptosis in human HepG2 cells assessed as viable cells at 1 uM after 24 hrs using Annexin V-FITC and propidium iodide staining by flow cytometry (reference value: 96.26 %); format: functional; settings: HepG2, 24 h, read-out: Activity
HepG2 [5] = assay: Induction of apoptosis in human HepG2 cells assessed as early apoptotic cells at 1 uM after 24 hrs using Annexin V-FITC and propidium iodide staining by flow cytometry (reference value: 0.02 %); format: functional
HepG2 [6] = assay: Induction of apoptosis in human HepG2 cells assessed as viable cells at 4 uM after 24 hrs using Annexin V-FITC and propidium iodide staining by flow cytometry (reference value: 96.26 %); format: functional; settings: HepG2, 24 h, read-out: Activity
HepG2 [7] = assay: Induction of apoptosis in human HepG2 cells assessed as early apoptotic cells at 2 uM after 24 hrs using Annexin V-FITC and propidium iodide staining by flow cytometry (reference value: 0.02 %); format: functional
HepG2 [8] = assay: Induction of apoptosis in human HepG2 cells assessed as cleaved caspase 3 level at 0.74 to 20 […] uM by Western blotting; format: functional, cell-based
HepG2 [9] = assay: Induction of apoptosis in human HepG2 cells assessed as necrotic cells at 4 uM after 24 hrs using Annexin V-FITC and propidium iodide staining by flow cytometry (reference value: 2.82 %); format: functional
HepG2 [10] = assay: Induction of apoptosis in human HepG2 cells assessed as early apoptotic cells at 0.5 uM after 24 hrs using Annexin V-FITC and propidium iodide staining by flow cytometry (reference value: 0.02 %); format: functional
HepG2 [11] = assay: Induction of apoptosis in human HepG2 cells assessed as late apoptotic cells at 4 uM after 24 hrs using Annexin V-FITC and propidium iodide staining by flow cytometry (reference value: 0.90 %); format: functional
HepG2 [12] = assay: Induction of apoptosis in human HepG2 cells assessed as viable cells at 0.5 uM after 24 hrs using Annexin V-FITC and propidium iodide staining by flow cytometry (reference value: 96.26 %); format: functional; settings: HepG2, 24 h, read-out: Activity
HepG2 [13] = assay: Induction of apoptosis in human HepG2 cells assessed as late apoptotic cells at 1 uM after 24 hrs using Annexin V-FITC and propidium iodide staining by flow cytometry (reference value: 0.90 %); format: functional
HepG2 [14] = assay: Induction of apoptosis in human HepG2 cells assessed as late apoptotic cells at 0.5 uM after 24 hrs using Annexin V-FITC and propidium iodide staining by flow cytometry (reference value: 0.90 %); format: functional
HepG2 [15] = assay: Induction of apoptosis in human HepG2 cells assessed as viable cells at 2 uM after 24 hrs using Annexin V-FITC and propidium iodide staining by flow cytometry (reference value: 96.26 %); format: functional; settings: HepG2, 24 h, read-out: Activity
HepG2 [16] = assay: Induction of apoptosis in human HepG2 cells assessed as necrotic cells at 1 uM after 24 hrs using Annexin V-FITC and propidium iodide staining by flow cytometry (reference value: 2.82 %); format: functional
HepG2 [17] = assay: Induction of apoptosis in human HepG2 cells assessed as late apoptotic cells at 2 uM after 24 hrs using Annexin V-FITC and propidium iodide staining by flow cytometry (reference value: 0.90 %); format: functional
HepG2 [18] = assay: Induction of apoptosis in human HepG2 cells assessed as cleaved PARP level at 0.74 to 20 […] uM by Western blotting; format: functional, cell-based
Focal adhesion kinase 1 [19] = target: T1, Focal adhesion kinase 1; assay: Inhibition of FAK in human HepG2 cells at 2.22 to 20 uM by Western blot analysis; format: cell-based
Target sequence in this assay (Q05397 2-1052 limits assumed): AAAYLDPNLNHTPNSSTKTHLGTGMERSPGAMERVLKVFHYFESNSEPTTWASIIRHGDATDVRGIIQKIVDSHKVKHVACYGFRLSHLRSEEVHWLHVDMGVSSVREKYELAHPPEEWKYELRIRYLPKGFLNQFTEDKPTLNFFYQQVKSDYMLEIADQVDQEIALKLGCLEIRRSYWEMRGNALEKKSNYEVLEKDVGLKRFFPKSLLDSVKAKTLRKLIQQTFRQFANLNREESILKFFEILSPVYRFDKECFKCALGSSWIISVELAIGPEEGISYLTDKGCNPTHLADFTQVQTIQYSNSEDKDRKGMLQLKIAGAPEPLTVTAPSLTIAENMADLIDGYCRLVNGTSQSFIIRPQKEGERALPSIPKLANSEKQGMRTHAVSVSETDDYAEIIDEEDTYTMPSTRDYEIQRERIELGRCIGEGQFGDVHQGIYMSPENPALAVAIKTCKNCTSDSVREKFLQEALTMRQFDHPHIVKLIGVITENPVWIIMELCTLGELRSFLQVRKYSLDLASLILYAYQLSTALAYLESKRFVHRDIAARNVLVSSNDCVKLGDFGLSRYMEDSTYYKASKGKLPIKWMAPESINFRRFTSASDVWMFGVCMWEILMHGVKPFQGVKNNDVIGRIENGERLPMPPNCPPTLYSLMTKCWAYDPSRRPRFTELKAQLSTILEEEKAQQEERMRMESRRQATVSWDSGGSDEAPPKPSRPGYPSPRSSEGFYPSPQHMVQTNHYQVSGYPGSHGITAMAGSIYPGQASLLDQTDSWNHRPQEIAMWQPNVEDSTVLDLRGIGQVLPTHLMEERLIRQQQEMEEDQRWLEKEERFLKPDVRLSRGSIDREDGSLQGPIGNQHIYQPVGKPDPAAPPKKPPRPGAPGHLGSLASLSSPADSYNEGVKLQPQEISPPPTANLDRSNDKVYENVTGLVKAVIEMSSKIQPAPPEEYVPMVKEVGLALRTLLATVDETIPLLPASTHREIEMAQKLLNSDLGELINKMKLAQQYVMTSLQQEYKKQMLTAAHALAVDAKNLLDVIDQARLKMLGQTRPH

HepG2 [20] = assay: Induction of apoptosis in human HepG2 cells assessed as necrotic cells at 2 uM after 24 hrs using Annexin V-FITC and propidium iodide staining by flow cytometry (reference value: 2.82 %); format: functional
HepG2 [21] = assay: Induction of apoptosis in human HepG2 cells assessed as necrotic cells at 0.5 uM after 24 hrs using Annexin V-FITC and propidium iodide staining by flow cytometry (reference value: 2.82 %); format: functional
HepG2 [22] = assay: Induction of apoptosis in human HepG2 cells assessed as early apoptotic cells at 4 uM after 24 hrs using Annexin V-FITC and propidium iodide staining by flow cytometry (reference value: 0.02 %); format: functional

## O=C(Cc1ccc(Br)cc1)Nc1nnc(-c2ccc3c(c2)OCCO3)s1
BGC-823
  EC50: > 100 µg/mL
HeLa
  EC50: 51.2 µg/mL (≈ 118 µM)
Focal adhesion kinase 1 [1]
  pEC50: 4.26
[2]
  EC50: > 100 µg/mL
HepG2 [3]
  EC50: 42.1 µg/mL (≈ 97.5 µM)

## O=C(Nc1nnc(-c2ccc3c(c2)OCCO3)s1)c1ccccn1
BGC-823
  EC50: 35.8 µg/mL (≈ 105 µM)
HeLa
  EC50: > 100 µg/mL
[2]
  EC50: > 100 µg/mL
HepG2 [3]
  EC50: > 100 µg/mL

## Cc1ccc(C(=O)Nc2nnc(-c3ccc4c(c3)OCCO4)s2)cn1
BGC-823
  EC50: > 100 µg/mL
HeLa
  EC50: > 100 µg/mL
[2]
  EC50: > 100 µg/mL
HepG2 [3]
  EC50: > 100 µg/mL

## O=C(Nc1nnc(-c2ccc3c(c2)OCCO3)s1)c1ccccc1
BGC-823
  EC50: 46.1 µg/mL (≈ 136 µM)
HeLa
  EC50: > 100 µg/mL
Focal adhesion kinase 1 [1]
  pEC50: 4.21
[2]
  EC50: 67.6 µg/mL (≈ 199 µM)
HepG2 [3]
  EC50: 34.8 µg/mL (≈ 102 µM)

## CC(=O)c1ccc(CC(=O)Nc2nnc(-c3ccc4c(c3)OCCO4)s2)cc1
BGC-823
  EC50: > 100 µg/mL
HeLa
  EC50: > 100 µg/mL
[2]
  EC50: > 100 µg/mL
HepG2 [3]
  EC50: > 100 µg/mL

## Nc1ccc(C(=O)Nc2nnc(-c3ccc4c(c3)OCCO4)s2)cc1
BGC-823
  EC50: > 100 µg/mL
HeLa
  EC50: > 100 µg/mL
[2]
  EC50: 41.2 µg/mL (≈ 116 µM)
HepG2 [3]
  EC50: > 100 µg/mL

## O=c1[nH]cc(F)c(=O)[nH]1 [FLUOROURACIL]
BGC-823
  EC50: 17.4 µg/mL (≈ 134 µM)
HeLa
  EC50: 31 µg/mL (≈ 238 µM)
[2]
  EC50: 28.5 µg/mL (≈ 219 µM)
HepG2 [3]
  EC50: 23.3 µg/mL (≈ 179 µM)

## O=C(Cc1cccc(Br)c1)Nc1nnc(-c2ccc3c(c2)OCCO3)s1
BGC-823
  EC50: > 100 µg/mL
HeLa
  EC50: 54.2 µg/mL (≈ 125 µM)
Focal adhesion kinase 1 [1]
  pEC50: 4.22
[2]
  EC50: > 100 µg/mL
HepG2 [3]
  EC50: 45.8 µg/mL (≈ 106 µM)

## O=C(Nc1nnc(-c2ccc3c(c2)OCCO3)s1)c1ccc(Cl)nc1
BGC-823
  EC50: > 100 µg/mL
HeLa
  EC50: > 100 µg/mL
Focal adhesion kinase 1 [1]
  pEC50: 4.44
[2]
  EC50: 30.3 µg/mL (≈ 81 µM)
HepG2 [3]
  EC50: 15.3 µg/mL (≈ 41 µM)

## O=C(Cc1ccccc1)Nc1nnc(-c2ccc3c(c2)OCCO3)s1
BGC-823
  EC50: 27.4 µg/mL (≈ 77.5 µM)
HeLa
  EC50: 49.9 µg/mL (≈ 141 µM)
Focal adhesion kinase 1 [1]
  pEC50: 4.30
[2]
  EC50: 51.3 µg/mL (≈ 145 µM)
HepG2 [3]
  EC50: 18.3 µg/mL (≈ 51.7 µM)

## O=C(Cc1ccc(F)cc1)Nc1nnc(-c2ccc3c(c2)OCCO3)s1
BGC-823
  EC50: > 100 µg/mL
HeLa
  EC50: > 100 µg/mL
Focal adhesion kinase 1 [1]
  pEC50: 4.29
[2]
  EC50: > 100 µg/mL
HepG2 [3]
  EC50: 23.8 µg/mL (≈ 64 µM)

## O=C(Cc1ccc(Cl)cc1)Nc1nnc(-c2ccc3c(c2)OCCO3)s1
BGC-823
  EC50: > 100 µg/mL
HeLa
  EC50: 26.8 µg/mL (≈ 69 µM)
Focal adhesion kinase 1 [1]
  pEC50: 4.50
[2]
  EC50: 40.7 µg/mL (≈ 105 µM)
HepG2 [3]
  EC50: 13.8 µg/mL (≈ 35.5 µM)

## O=C(/C=C/c1ccccc1)Nc1nnc(-c2ccc3c(c2)OCCO3)s1
HepG2 [4]
  viability at 1 µM: 58.9%
HepG2 [5]
  Activity: 3.49%
HepG2 [6]
  viability at 4 µM: 39.5%
HepG2 [7]
  Activity: 4.03%
BGC-823
  EC50: 45.4 µg/mL (≈ 124 µM)
HeLa
  EC50: > 100 µg/mL
HepG2 [8]
  Activity: Active
HepG2 [9]
  Activity: 26.23%
HepG2 [10]
  Activity: 0.8%
Focal adhesion kinase 1 [1]
  pEC50: 4.53
HepG2 [11]
  Activity: 23.25%
HepG2 [12]
  viability at 0.5 µM: 58.3%
HepG2 [13]
  Activity: 13.17%
[2]
  EC50: 60.2 µg/mL (≈ 165 µM)
HepG2 [14]
  Activity: 8%
HepG2 [15]
  viability at 2 µM: 50.8%
HepG2 [16]
  Activity: 24.49%
HepG2 [17]
  Activity: 18%
HepG2 [18]
  Activity: Active
Focal adhesion kinase 1 [19]
  inhibition: Active
HepG2 [3]
  EC50: 10.3 µg/mL (≈ 28.1 µM)
HepG2 [20]
  Activity: 27.21%
HepG2 [21]
  Activity: 32.8%
HepG2 [22]
  Activity: 11%

## O=C(CCc1ccccc1)Nc1nnc(-c2ccc3c(c2)OCCO3)s1
BGC-823
  EC50: 14.2 µg/mL (≈ 38.7 µM)
HeLa
  EC50: 32.5 µg/mL (≈ 88.3 µM)
Focal adhesion kinase 1 [1]
  pEC50: 4.42
[2]
  EC50: 16.2 µg/mL (≈ 44 µM)
HepG2 [3]
  EC50: 15.3 µg/mL (≈ 41.7 µM)

## O=C(Cc1cccc(Cl)c1)Nc1nnc(-c2ccc3c(c2)OCCO3)s1
BGC-823
  EC50: > 100 µg/mL
HeLa
  EC50: 34.9 µg/mL (≈ 89.9 µM)
Focal adhesion kinase 1 [1]
  pEC50: 4.33
[2]
  EC50: 47.6 µg/mL (≈ 123 µM)
HepG2 [3]
  EC50: 18.4 µg/mL (≈ 47.5 µM)

## Cc1ccccc1C(=O)Nc1nnc(-c2ccc3c(c2)OCCO3)s1
BGC-823
  EC50: > 100 µg/mL
HeLa
  EC50: > 100 µg/mL
[2]
  EC50: > 100 µg/mL
HepG2 [3]
  EC50: > 100 µg/mL

## O=C(Cc1ccc2ccccc2c1)Nc1nnc(-c2ccc3c(c2)OCCO3)s1
BGC-823
  EC50: 67.9 µg/mL (≈ 168 µM)
HeLa
  EC50: > 100 µg/mL
[2]
  EC50: 43.6 µg/mL (≈ 108 µM)
HepG2 [3]
  EC50: > 100 µg/mL

## O=C(Nc1nnc(-c2ccc3c(c2)OCCO3)s1)c1ccncc1
BGC-823
  EC50: 41 µg/mL (≈ 121 µM)
HeLa
  EC50: > 100 µg/mL
[2]
  EC50: > 100 µg/mL
HepG2 [3]
  EC50: > 100 µg/mL

## CCOc1ccc(CC(=O)Nc2nnc(-c3ccc4c(c3)OCCO4)s2)cc1OCC
BGC-823
  EC50: > 100 µg/mL
HeLa
  EC50: > 100 µg/mL
[2]
  EC50: > 100 µg/mL
HepG2 [3]
  EC50: > 100 µg/mL

## COc1cccc(CC(=O)Nc2nnc(-c3ccc4c(c3)OCCO4)s2)c1
BGC-823
  EC50: > 100 µg/mL
HeLa
  EC50: > 100 µg/mL
[2]
  EC50: > 100 µg/mL
HepG2 [3]
  EC50: > 100 µg/mL
